Key:
H3R-453 [1] = molecular target: T1, H3R-453 (Homo sapiens, UniProt Q9Y5N1); conditions: […] Tris-HCl pH […] °C, […] h; labelled compound
H3R-373 [2] = molecular target: T2, H3R-373 (Homo sapiens, UniProt Q9Y5N1, INS445KMKKKTCL); conditions: […] Tris-HCl pH […] °C, […] h; labelled compound
H3R-365 [3] = molecular target: T3, H3R-365 (Homo sapiens, UniProt Q9Y5N1); test: biochemical
H3R-445 [4] = molecular target: T4, H3R-445 (Homo sapiens, UniProt Q9Y5N1); test: biochemical
H3R-415 [5] = molecular target: T5, H3R-415 (Homo sapiens, UniProt Q9Y5N1); test: biochemical
H3R-413 [6] = molecular target: T6, H3R-413 (Homo sapiens, UniProt Q9Y5N1, DEL274-305); test: biochemical
H3R-373 [7] = molecular target: T2, H3R-373
H3R-453 [8] = molecular target: T1, H3R-453
H3R-413 [9] = molecular target: T6, H3R-413; test: biochemical; remark: listed apart in the source
H3R-365 [10] = molecular target: T3, H3R-365; test: biochemical; remark: listed apart in the source
H3R-445 [11] = molecular target: T4, H3R-445; test: biochemical; remark: listed apart in the source
H3R-415 [12] = molecular target: T5, H3R-415; test: biochemical; remark: listed apart in the source
H3R-453 [13] = molecular target: T1, H3R-453; test: cell-based; design: species or system HEK293-EPAC stably expressing H3R isoform; conditions: HEK293-EPAC stably expressing H3R isoform, read-out: H3R-453 α
H3R-445 [14] = molecular target: T4, H3R-445; test: cell-based; design: species or system HEK293-EPAC stably expressing H3R isoform; conditions: HEK293-EPAC stably expressing H3R isoform, read-out: H3R-445 α
H3R-415 [15] = molecular target: T5, H3R-415; test: cell-based; design: species or system HEK293-EPAC stably expressing H3R isoform; conditions: HEK293-EPAC stably expressing H3R isoform, read-out: H3R-415 α
H3R-413 [16] = molecular target: T6, H3R-413; test: cell-based; design: species or system HEK293-EPAC stably expressing H3R isoform
H3R-413 [17] = molecular target: T6, H3R-413; test: cell-based; design: species or system HEK293-EPAC stably expressing H3R isoform; conditions: HEK293-EPAC stably expressing H3R isoform, read-out: H3R-413 α
H3R-373 [18] = molecular target: T2, H3R-373; test: cell-based; design: species or system HEK293-EPAC stably expressing H3R isoform; conditions: HEK293-EPAC stably expressing H3R isoform, read-out: H3R-373 α
H3R-365 [19] = molecular target: T3, H3R-365; test: cell-based; design: species or system HEK293-EPAC stably expressing H3R isoform; conditions: HEK293-EPAC stably expressing H3R isoform, read-out: H3R-365 α

Ki (H3R-373 [7]) | Ki (H3R-453 [8]) | Ki (H3R-413 [9]) | Ki (H3R-365 [10]) | Ki (H3R-445 [11]) | Ki (H3R-415 [12]) | Emax (H3R-453 [13]) | Emax (H3R-445 [14]) | Emax (H3R-415 [15]) | EC50 (H3R-413 [16]) | Emax (H3R-413 [17]) | Emax (H3R-373 [18]) | Emax (H3R-365 [19]) | Compound | pKD (H3R-453 [1]) | pKD (H3R-373 [2]) | Kd (H3R-365 [3]) | Kd (H3R-445 [4]) | Kd (H3R-415 [5]) | Kd (H3R-413 [6])
 |  |  |  |  |  |  |  |  |  |  |  |  | CNCCc1c[nH]cn1 [[3H]NAMH] | 9.0 ± 0.1 | 9.6 ± 0.1 | 0.501 nM | 1.26 nM | 1.26 nM | 1.26 nM
1.58 nM | 3.16 nM | 3.98 nM | 2 nM | 2.51 nM | 3.98 nM | 50 ± 10% | 60 ± 20% | 50 ± 10% | 6.31 nM | 50 ± 10% | 70 ± 10% | 100 ± 30% | NCCCCCc1c[nH]cn1 [impentamine, 5-(3H-imidazol-4-yl)pentan-1-amine] |  |  |  |  |  | 

Source: paper doi:10.1101/2023.12.06.570349v1 (biorxiv, 2023)
